Data published in the NIST ThermoML archive (doi:10.1016/j.jct.2016.11.024).
Numbers after ± are expanded uncertainties.

Details: Liquid, Ebulliometric method (Recirculating still)

| SMILES | vapor or sublimation pressure (389.1 K) | vapor or sublimation pressure (412.93 K) | vapor or sublimation pressure (424.43 K) | vapor or sublimation pressure (356.53 K) | vapor or sublimation pressure (380.5 K) | vapor or sublimation pressure (391.77 K) |
| --- | --- | --- | --- | --- | --- | --- |
| CCCCCCCCCC(=O)OC [methyl decanoate] | 2 ± 0.2 kPa | 6 ± 0.61 kPa | 10 ± 1 kPa |  |  |  |
| CCCCCCCC(=O)OC [methyl octanoate] |  |  |  | 2 ± 0.2 kPa | 6 ± 0.61 kPa | 10 ± 1 kPa |
